Source: EP1038870A1, “3,3-bis(aryl)-5-((N-(un)substituted)amido)naphthopyrans, their preparation, compositions and (co)polymer matrices containing them” (Corning S.A., priority 1999, dated 2000)

Test: Photochromic properties of lens samples (2 mm, compound in the mass of cross-linked matrix I or II) exposed to UV radiation from a xenon lamp
Assay type: physicochemical
Details: lens sample
From the text: The matrix used in accordance with the present invention may be one of two types:
A homopolymer of the monomer DIACRYL 121 (D121 : tetraethoxylated Bisphenol A dimethylmethacrylate), marketed by Akzo Nobel; or
A copolymer comprised of a 50/50 mixture by weight of D121 (as above) and polyethylene glycol dimethacrylate (Molecular weight = 400) (PEGDMA 400).
10^-5 moles of at least one compound of the invention, together with 0.2% by weight of AMBN (2,2'-azobis(2-methylbutyronitrile)) provided by Akzo, are added to 10 g of formulations able to generate cross-linked matrix I or II. The formulations thus prepared are then poured into a lens mould of 2 mm thickness and then cured by heating at 60°C for 6 hours, followed by heating at 80°C for 2 hours to give a lens sample. The photochromic properties of the lens samples thus obtained were then evaluated as follows : Said lens sample, containing said photochromic compounds in its mass, is exposed to a UV radiation (source: xenon lamp).

[1] = Matrix II (50/50 D121 / PEGDMA 400 copolymer)
[2] = Matrix I (homopolymer of DIACRYL 121)

| SMILES | OID : optical induced density (D∞-D0) [1] | T0 : the transmission before exposure to UV [1] [%] | TD15: the transmission after 15 minutes' exposure to UV [1] [%] | λmax: the maximum absorption in the visible spectrum after UV irradiation [1] [nm] | OID : optical induced density (D∞-D0) [2] | T0 : the transmission before exposure to UV [2] [%] | TD15: the transmission after 15 minutes' exposure to UV [2] [%] | λmax: the maximum absorption in the visible spectrum after UV irradiation [2] [nm] |
| --- | --- | --- | --- | --- | --- | --- | --- | --- |
| C1=CC(c2ccccc2)(c2ccccc2)Oc2ccc3ccccc3c21 [Control, 3,3-bisphenyl-3H-naphtho[2,1-b]pyran, reference compound] | 0.280 | 88 | 44 | 436 | – | – | – | – |
| Cc1ccc(NC(=O)c2cc3ccccc3c3c2OC(c2ccccc2)(c2ccccc2)C=C3)cc1 [Example 1, 3,3-diphenyl-5-p-tolylcarbamoyl-3H-naphtho[2,1-b]pyran] | – | – | – | – | 0.315 | 87.9 | 42.6 | 477 |
| COc1ccc(C2(c3ccc(OC)cc3OC)C=Cc3c(c(C(=O)N4CCOCC4)cc4ccccc34)O2)c(OC)c1 [Example 2, 3,3-bis(2,4-dimethoxyphenyl)-5-morpholinocarbonyl-3H-naphtho[2,1-b]pyran] | – | – | – | – | 1.303 | 85.7 | 4.3 | 514 |
| CN(C)c1ccc(C2(c3ccc(N(C)C)c4ccccc34)C=Cc3c(c(C(=O)N4CCOCC4)cc4ccccc34)O2)cc1 (stereo not drawn) [Example 4, 3-(4-dimethylaminophenyl)-3-(4-dimethylaminonapthyl)-5-morpholinocarbonyl-3H-naphtho[2,1-b]pyran] | – | – | – | – | 0.325 | 65.0 | 30.8 | 556 |
| COc1ccc(C2(c3ccc(OC)cc3OC)C=Cc3c(c(C(=O)N4CCc5ccccc54)cc4ccccc34)O2)c(OC)c1 [Example 5, 3,3-bis(2,4-dimethoxyphenyl)-5-indolinocarbonyl--3H-naphtho[2,1-b]pyran] | 1.634 | 84.0 | 2.0 | 514 | 1.063 | 85.6 | 7.4 | 514 |
| COc1ccc(C2(c3ccc(OC)cc3OC)C=Cc3c(c(C(=O)N4CCOCC4)cc4ccccc34)O2)cc1 (stereo not drawn) [Example 6, 3-(2,4-dimethoxyphenyl)-3-(4-methoxyphenyl)-5-morpholinocarbonyl-3H-naphtho[2,1-b]pyran] | 2.146 | 84.0 | 0.6 | – | 1.931 | 85.4 | 1.0 | 510 |
| COc1ccc(C2(c3ccc(OC)c(OC)c3)C=Cc3c(c(C(=O)N4CCOCC4)cc4ccccc34)O2)c(OC)c1 (stereo not drawn) [Example 7, 3-(2,4-dimethoxyphenyl)-3-(3,4-dimethoxyphenyl)-5-morpholinocarbonyl-3H-naphtho[2,1-b]pyran] | 0.805 | 88.1 | 13.8 | 512 | 0.746 | 88.0 | 15.8 | 512 |
| COc1ccc(C2(c3ccc(N4CCCCC4)cc3)C=Cc3c(c(C(=O)N4CCCCC4)cc4ccccc34)O2)c(OC)c1 (stereo not drawn) [Example 8, 3-(2,4-dimethoxyphenyl)-3-(p-N-piperidinophenyl)-5-piperidinocarbonyl-3H-naphtho[2,1-b]pyran] | 0.769 | 85.8 | 14.6 | 570 | 0.637 | 85.4 | 19.7 | 570 |
| COc1ccc(C2(c3ccc(OC)cc3OC)C=Cc3c(c(C(=O)N4CCCCC4)cc4ccccc34)O2)c(OC)c1 [Example 9, 3,3-bis(2,4-dimethoxyphenyl)-5-piperidinocarbonyl-3H-naphtho[2,1-b]pyran] | 0.765 | 89.0 | 15.3 | 504 | – | – | – | – |
